Reference: BindingDB's records for doi:10.1021/jm00388a036 (1987)

Biological target: Thymidine kinase (Herpes simplex virus 1)
Assay: Binding affinity was determined against Herpes simplex virus (HSV) -1 thymidine kinase in vero cell monolayer culture

In the case of Nc1nc2c(ncn2CC=C(CO)CO)c(=O)[nH]1, the Ki is reported as 25 µM.
